Reference: patent US9464215B2, “Use of a ketal as a solvent in adhesives and ketal-containing adhesive composition” (OXITENO S.A. INDÚSTRIA E COMÉRCIO, priority 2012, dated 2016)
Converted amounts (≈) assume the structure as drawn.

Key:
[1] = IARC, NTP, OSHA, ACGIH; cited from earlier work
rat [2] = settings: cited from earlier work
rabbit [3] = settings: 24 hours of exposure; cited from earlier work
Water solubility = assay type: physicochemical; settings: heading: Water solubility
[4] = Solubilization and gel formation of 2 wt% polychloroprene solution; assay type: physicochemical; settings: 2% by weight of polymer, rest for 24 hours
Protocol: A polychloroprene solution was prepared in 2-methyl-2-ethyl-1,3-dioxolane at a concentration of 2% by weight of the polymer, which was allowed to rest for 24 hours. […] Gel formation usually takes place by using toluene or an aromatic hydrocarbon solvent, and was not expected in the case of oxygenated solvents, such as 2-methyl-2-ethyl-1,3-dioxolane.

rat [5] = settings: 4 hours of exposure; cited from earlier work
rabbit [6] = settings: cited from earlier work
rabbit [7] = settings: 24 hours of exposure; cited from earlier work; remark: listed apart in the source

## CCC1(C)OCCO1 [2-methyl-2-ethyl-1,3-dioxolane]
[1]
  Carcinogenicity listing: not listed as carcinogenic
Rat [2]
  LD50 (oral rat): 2,830 μL/kg
Rabbit [3]
  LCLo/24H (eye irritation - rabbit): 500 mg/24 H
Water solubility
  solubility: 3260 µg/mL (≈ 28.1 mM)
[4]
  Gel formation: formation of a gel was seen
Rat [5]
  LCLo/4 H (inhalation rat): 4,000 ppm/4 H
Rabbit [6]
  DL50 (dermal rabbit): 10 mL/kg
Rabbit [7]
  LCLo/24 H (skin rash - rabbit): 500 mg/24 H
